Results from patent US9192680B2, “Pharmaceutical compounds” (APOSENSE LTD., priority 2010, dated 2015).
Where two headings read alike, the source gives them in different places.

Experiments:
[1] = Pharmacokinetics after single intravenous administration; format: in vivo, beagle dogs; details: 6 mg/kg single i.v.
Description: The stock solution was diluted 10-fold in 10% bovine serum albumin solution in 0.1M sodium phosphate buffer (pH 5.8) and mixed by vortex until a homogeneous emulsion was obtained. […] Fresh formulations of both drugs were prepared prior to each administration, and the drugs were administrated by a slow bolus injection within approximately 3 minutes, at a dose of 6 mg/kg (1.2 ml/kg), adjusted to the individual animal body weight.
Plasma was separated by centrifugation, and stored at −70° C. until HPLC analysis. WinNonlin™ software was used for the analysis of the pharmacokinetic data.

[2] = tested on: Mia-PaCa pancreatic carcinoma tumors; test: Xenograft model of pancreatic carcinoma
[3] = tested on: A375-melanoma cells; test: Cytotoxicity in cultured A375-melanoma cells (XTT cell viability); format: cell-based; details: Homo sapiens, read-out: IC50 (drug concentration that inhibited 50% of the cell growth)
Description: Cells were grown in RPMI 1640 (Gibco, UK) supplemented with 10% FBS (Gibco, UK) 2 mM of L-glutamin (Gibco, UK), 20 mM HEPES buffer (Beit-Haemek, Israel), 100 units/ml of penicillin, and 100 μg/ml of streptomycin (Gibco, UK). Cells were cultured in humidified atmosphere containing 5% CO2 at 37° C. Medium was routinely changed twice a week, and cells were sub-cultured with 0.25% trypsin/EDTA (Beit-Haemek, Israel) when reaching 85% confluence.
ATT-11T was produced by Aptuit-Laurus (India). The compound was dissolved in DMSO. […] The cells were incubated for 24 hours at 37° C. with serial dilutions of ATT-11T (or CPT 11), dissolved in growing medium. Cell viability was then determined, using the XTT reagent (Beit-Haemek, Israel). At the end of the incubation period, tetrazolium dye was added, and formation of a colored product formazan was measured at 450 nm using a microplate reader (ELx800, Bio-Tek instruments Inc.). Cell viability vs. drug concentration was plotted, and data were fitted with a non-linear regression analysis using GraphPad prisma ver.5.0 software. […]

[4] = Maximal tolerated dose (MTD); details: female, athymic nude, mouse, in vivo, ip; intraperitoneally, once a week for three weeks, nude mice; read-out: maximal tolerate dose (MTD)
Description: Drug treatment was initiated on day 11, when tumors reached an average volume of 119 mm^3 ATT-11T was administered in a vehicle comprising 5% DMSO, 5% NMP, 10% ETOH, 40% PEG-400 and 40% PG. […] . […] The drugs were administered intraperitoneally.

[5] = Adverse effects and body weight in A375 tumor-bearing mice; format: in vivo, nude mice; details: for gain of initial body weight: day 1 of treatment up to day 29 of inoculation
Description: For the evaluation of potential adverse effects of ATT-11T, nude mice, bearing the A375 melanoma tumors and treated with ATT-11T as described above, were monitored for adverse effects immediacy after drug administration, and also twice a week, through one day after last dose. The evaluation protocol consisted of gross observation, registration of abnormal signs, and determination of body weight. Potential body weight loss (BWL) was calculated as % BWL=100−(BWdays/BWday1×100), where day 1 is the first day of treatment and day x is the day of assessment thereafter.

[6] = tested on: SW-620 colorectal carcinoma tumors; format: in vivo, athymic nude mice; details: for tumor growth inhibition: one week after the last administration
Description: Drug treatment was initiated on day 11, when tumors reached an average volume of 119 mm^3 ATT-11T was administered in a vehicle comprising 5% DMSO, 5% NMP, 10% ETOH, 40% PEG-400 and 40% PG. […] The drugs were administered intraperitoneally.

[7] = tested on: OVCAR-3 ovarian carcinoma tumors; test: Xenograft model of ovarian carcinoma; format: in vivo, athymic nude mice; details: for growth inhibition vs. the control group: one week post last administration
Description: Tumor-bearing mice, injected only with the vehicle solution served as the control group.

[8] = tested on: A375 melanoma tumors; test: Xenograft model of melanoma: tumor regression, growth inhibition and growth delay; format: in vivo, athymic nude mice; details: for Tumor volume inhibition (TVI): one week after the last dose; for tumor growth at day 30 after the last dose: 58 days after tumor cell inoculation; for growth inhibition: one week after last administration
Description: Tumor-bearing mice, injected only with the vehicle solution served as controls.
ATT11-T (Aptuit-Luarus, India) was administered in a vehicle as described above. Tumor-bearing mice injected only with the vehicle solution served as controls. […] Tumor volume was evaluated as described above.
Drug-induced delay in tumor growth was assessed by two measures: (i). Tumor volume inhibition (TVI %) at one week after the last treatment in treated versus control tumors, which was calculated according to the Formula TVI (%)=(1-T/C)×100, where T and C are the tumor volume of the treated and control groups, respectively; and (ii). Tumor growth delay (TGD), assessed as the time period (days) of treatment-induced delay in tumor reaching a pre-determined volume of 3,500 mm^3, as compared to the vehicle-treated controls.

[9] = tested on: H-82 SCLC tumors; test: Xenograft model of small-cell lung carcinoma
[10] = 20 mg/kg i.v. once a week for 3 weeks
[11] = 40 mg/kg i.v. once a week for 3 weeks

SMILES: CCc1c2c(nc3ccc(OC(=O)N4CCC(CCC(C)(COC(C)(C)C)COC(C)(C)C)CC4)cc13)-c1cc3c(c(=O)n1C2)COC(=O)C3(O)CC (centres unmarked) [ATT-11T]
- plasma level of derived SN-38 at 48 hours after administration ([1]; dogs): still detectable
- AUC of ATT-11T relative to that of CPT-11 ([1]; dogs, parent drug): 4 fold
- increase in t1/2 of ATT-11T over CPT-11 ([1]; dogs, parent drug): 3.8 fold
- half-life ([1]; dog, in vivo, iv, female beagle dogs, read-out: plasma half-life (t1/2) of the parent drug (converted)): 25.6 h
- % tumor growth delay (% TGD) to 1,000 mm^3 [2, 10]: 86%
- days post tumor inoculation to reach average tumor volume of 1,000 mm^3 [2, 10]: 39 days
- tumor growth inhibition (TGI) ([2]; 20 mg/kg i.v. once a week for 3 weeks, one week after the last administration): 48%
- % tumor growth delay (% TGD) to 1,000 mm^3 [2, 11]: 152%
- days post tumor inoculation to reach average tumor volume of 1,000 mm^3 [2, 11]: 53 days
- tumor growth inhibition (TGI) vs. control tumors ([2]; 40 mg/kg i.v. once a week for 3 weeks, one week after the last administration): 86%
- IC50 ([3]; A-375, 24 h): 3.3 µM
- MTD at 3 weeks [4]: 150 mg/kg
- gain of initial body weight ([5]; 5 mg/kg): 7%
- gain of initial body weight ([5]; 20 mg/kg): 5%
- tolerability (adverse effects, weight loss) ([5]; both doses, 5 and 20 mg/kg): well-tolerated
- tumor growth 136 days post last treatment (161 days post tumor inoculation) ([6]; MTD 150 mg/kg i.p.): no tumor growth
- tumor growth inhibition ([6]; MTD 150 mg/kg intraperitoneally once a week for three weeks): 100%
- growth inhibition vs. the control group ([7]; 20 mg/kg i.v. once a week for three weeks): 99%
- average tumor volume ([7]; 20 mg/kg i.v., day 42 (21 days post last dose)): 46 mm^3
- Tumor volume inhibition (TVI) ([8]; 5 mg/kg i.v. twice a week for three weeks): 100%
- tumor growth at day 30 after the last dose ([8]; 5 mg/kg): little
- Tumor volume inhibition (TVI) ([8]; 20 mg/kg i.v. twice a week for three weeks): 100%
- tumor growth at day 30 after the last dose ([8]; 20 mg/kg): no growth
- growth inhibition ([8]; ATT-11T 5 mg/kg i.v. three times a week for three weeks): 100%
- growth inhibition ([8]; ATT-11T 20 mg/kg i.v. three times a week for three weeks): 100%
- tumor growth inhibition vs. the control group ([9]; 40 mg/kg i.v. once a week for three weeks): 92%

SMILES: CCc1c2c(nc3ccc(OC(=O)N4CCC(N5CCCCC5)CC4)cc13)-c1cc3c(c(=O)n1C2)COC(=O)[C@]3(O)CC [CPT-11, irinotecan, reference compound]
- plasma level of derived SN-38 at 24 hours after administration ([1]; dogs): below detection level
- % tumor growth delay (% TGD) to 1,000 mm^3 ([2]; 18 mg/kg i.v. (equimolar to 20 mg/kg ATT-11T)): 43%
- % tumor growth delay (% TGD) to 1,000 mm^3 ([2]; 36 mg/kg i.v. (equimolar to 40 mg/kg ATT-11T)): 76%
- tumor growth inhibition (TGI) vs. control tumors ([2]; 36 mg/kg i.v. once a week for 3 weeks, one week after the last administration): 42%
- IC50 ([3]; A-375, A375 cells, 24 hours incubation, XTT): 10.1 µM
- MTD [4]: 100 mg/kg
- tumor growth inhibition ([6]; […]): 85%
- growth inhibition vs. the control group ([7]; 18 mg/kg i.v. once a week for three weeks): 83%
- tumor growth inhibition vs. the control group ([9]; 36 mg/kg i.v. once a week for three weeks): 67%
